Laboratory results: ChEMBL document CHEMBL1152059, “Novel inhibitors of influenza sialidases related to zanamivir. Heterocyclic replacements of the glycerol sidechain” (Bioorg Med Chem Lett, 1997)

Target: Neuraminidase (Influenza A virus (A/Puerto Rico/8/1934(H1N1)), UniProt P03468)
Experiment: Inhibitory activity against influenza A virus sialidase

**Q.** With `CCCn1nc(Cc2ccccc2)nc1[C@@H]1OC(C(=O)OC(c2ccccc2)c2ccccc2)=C[C@H](NC(=O)OC(C)(C)C)[C@H]1NC(C)=O` as the molecule, how does the IC50 read?
**A.** 0.07 µM

**Q.** How did the IC50 turn out when `CC(=O)N[C@@H]1[C@@H](N)C=C(C(=O)O)O[C@H]1c1nc(C)no1` was run?
**A.** 23 µM

**Q.** For `CC(=O)N[C@@H]1[C@@H](N)C=C(C(=O)O)O[C@H]1c1nc(Cc2ccccc2)no1`, which IC50 is on record?
**A.** 99 µM

**Q.** How did the IC50 turn out when `CC(=O)N[C@@H]1[C@@H](NC(=O)OC(C)(C)C)C=C(C(=O)OC(c2ccccc2)c2ccccc2)O[C@H]1c1nnc(Cc2ccccc2)[nH]1` was run?
**A.** 87 µM

**Q.** How did the IC50 turn out when `CC(=O)N[C@@H]1[C@@H](N)C=C(C(=O)O)O[C@H]1c1nc(-c2ccccc2)no1` was run?
**A.** 14 µM

**Q.** For `CCCn1nc([C@@H]2OC(C(=O)OC(c3ccccc3)c3ccccc3)=C[C@H](NC(=O)OC(C)(C)C)[C@H]2NC(C)=O)nc1Cc1ccccc1`, which IC50 is on record?
**A.** 12 µM

**Q.** `CCCCc1nnc([C@@H]2OC(C(=O)O)=C[C@H](N)[C@H]2NC(C)=O)n1CCC` was tested. Which IC50 did it give?
**A.** 0.33 µM

**Q.** With `CCCCc1noc([C@@H]2OC(C(=O)O)=C[C@H](N)[C@H]2NC(C)=O)n1` as the molecule, how does the IC50 read?
**A.** 56 µM
